In the supplement of paper PMC10307832:

Tests used:
Experiment in all cases: relative viability (nuclei count vs DMSO), 5 days (fraction); higher = more cells survive
[1] = compound: CCn1c(-c2nonc2N)nc2c(C#CC(C)(C)O)ncc(OC[C@H]3CCCNC3)c21 + CS(=O)(=O)CCNCc1ccc(-c2ccc3ncnc(Nc4ccc(OCc5cccc(F)c5)c(Cl)c4)c3c2)o1 [Lapatinib] (partner 2 µM)
Procedure, shortened: (§1)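 Nuclei were stained with Hoechst during a one-step fixation (final 0.05% Triton X-100, 1% formaldehyde, 1 ug/ml Hoechst) carried out 5 days after dosing, then counted on 4× images. The cells, lung cancer lines in 1536-well plates, had been dosed by pin tool the day after seeding with one drug alone or a fixed anchor-drug dose plus five library-drug doses (not always all listed) in √10 steps. Relative viability is the nuclei count in treated wells divided by that in vehicle wells, and each value is the median of duplicate plates.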

[2] = compound: CCn1c(-c2nonc2N)nc2c(C#CC(C)(C)O)ncc(OC[C@H]3CCCNC3)c21 + Cc1nc(Nc2ncc(C(=O)Nc3c(C)cccc3Cl)s2)cc(N2CCN(CCO)CC2)n1 [Dasatinib] (partner 0.075 µM)
Procedure, shortened: as §1

BAM7 + OSI-027 = compound: CCOC1=CC=CC=C1N=NC2=C(NN(C2=O)C3=NC(=CS3)C4=CC=CC=C4)C [BAM7] + COc1cccc2cc(-c3nc([C@H]4CC[C@H](C(=O)O)CC4)n4ncnc(N)c34)[nH]c12 [OSI-027] (partner 0.5 µM)
Procedure, shortened: as §1

BAM7 + Pictilisib = compound: CCOC1=CC=CC=C1N=NC2=C(NN(C2=O)C3=NC(=CS3)C4=CC=CC=C4)C [BAM7] + CS(=O)(=O)N1CCN(Cc2cc3nc(-c4cccc5[nH]ncc45)nc(N4CCOCC4)c3s2)CC1 [Pictilisib] (partner 1 µM)
Procedure, shortened: as §1

| Cell Line | relative viability ([1]; first compound 0.01 µM) | relative viability ([1]; first compound 0.03162 µM) | relative viability ([1]; first compound 0.1 µM) | relative viability ([1]; first compound 0.3162 µM) | relative viability ([1]; first compound 1 µM) | relative viability ([2]; first compound 0.01 µM) | relative viability ([2]; first compound 0.03162 µM) | relative viability ([2]; first compound 0.1 µM) | relative viability ([2]; first compound 0.3162 µM) | relative viability ([2]; first compound 1 µM) | relative viability (BAM7 + OSI-027; first compound 0.5 µM) | relative viability (BAM7 + OSI-027; first compound 5 µM) | relative viability (BAM7 + OSI-027; first compound 15.81 µM) | relative viability (BAM7 + OSI-027; first compound 50 µM) | relative viability (BAM7 + Pictilisib; first compound 0.5 µM) | relative viability (BAM7 + Pictilisib; first compound 5 µM) | relative viability (BAM7 + Pictilisib; first compound 15.81 µM) | relative viability (BAM7 + Pictilisib; first compound 50 µM) |
| --- | --- | --- | --- | --- | --- | --- | --- | --- | --- | --- | --- | --- | --- | --- | --- | --- | --- | --- |
| LXF-289 | 0.921 | 0.891 | 0.934 | 0.871 | 0.88 | 0.249 | 0.223 | 0.205 | 0.234 | 0.187 | 0.923 | 0.909 | 0.761 | 0.802 | 0.892 | 0.844 | 0.766 | 0.786 |
| NCI-H2009 | 0.974 | 1.03 | 1.05 | 1.02 | 0.905 | 0.257 | 0.33 | 0.287 | 0.254 | 0.283 | 0.68 | 0.758 | 0.581 | 0.689 | 0.899 | 0.827 | 0.846 | 0.854 |
| NCI-H2405 | 1.11 | 1.06 |  | 1.01 | 1.02 | 0.199 | 0.216 | 0.216 | 0.214 | 0.213 | 0.623 | 0.686 | 0.608 | 0.683 | 0.438 | 0.557 | 0.449 | 0.538 |
| NCI-H1755 | 1.03 | 1.02 | 1.03 | 0.993 | 1.07 | 0.432 | 0.419 | 0.423 | 0.42 | 0.42 | 0.81 | 0.698 | 0.689 | 0.719 | 0.454 | 0.409 | 0.366 | 0.415 |
| HCC-78 | 0.717 | 0.673 | 0.903 | 0.547 | 0.301 | 0.344 | 0.361 | 0.423 | 0.291 | 0.389 | 0.39 | 0.372 | 0.423 | 0.384 | 0.178 | 0.177 | 0.213 | 0.245 |
| LOU-NH91 | 0.802 | 0.681 | 0.717 | 0.652 | 0.618 | 0.564 | 0.575 | 0.543 | 0.537 | 0.337 | 0.717 | 0.729 | 0.729 | 0.801 | 0.54 | 0.555 | 0.524 | 0.532 |
| NCI-H3122 | 0.959 | 1.04 | 1.05 | 1.13 | 1 | 0.68 | 0.859 | 0.857 | 0.852 | 0.637 | 1.03 | 1.11 | 1.01 | 1.28 | 0.75 | 0.689 | 0.685 | 0.694 |
| HCC-827 | 0.175 | 0.219 | 0.191 | 0.173 | 0.217 | 0.242 | 0.34 | 0.296 | 0.354 | 0.335 | 0.798 | 0.794 | 0.775 | 0.822 | 0.969 | 0.908 | 0.877 | 0.977 |
